Results as given in ChEMBL document CHEMBL5523759, “Discovery of Novel HDAC3 Inhibitors with PD-L1 Downregulating/Degrading and Antitumor Immune Effects” (J Med Chem, 2024).
Active and inactive are the calls of the source. The rule behind the calls is not given here.

Experiments:
B16-F10 [1] = assay: Antiproliferative activity against mouse B16-F10 cells assessed as reduction in cell viability measured for 48 hrs by MTT assay; assay type: functional, cell-based; settings: B16-F10, 48 h
[2] = target: T1, Protein deacetylase HDAC6 (Homo sapiens, UniProt Q9UBN7); assay: Inhibition of human recombinant HDAC6 using Ac-Leu-Gly-Lys (Ac)-AMC as substrate preincubated with compound for 10 mins followed by substrate addition and measured after 45 mins by TECAN microtiter plate reader analysis
T1 sequence (Q9UBN7 whole entry): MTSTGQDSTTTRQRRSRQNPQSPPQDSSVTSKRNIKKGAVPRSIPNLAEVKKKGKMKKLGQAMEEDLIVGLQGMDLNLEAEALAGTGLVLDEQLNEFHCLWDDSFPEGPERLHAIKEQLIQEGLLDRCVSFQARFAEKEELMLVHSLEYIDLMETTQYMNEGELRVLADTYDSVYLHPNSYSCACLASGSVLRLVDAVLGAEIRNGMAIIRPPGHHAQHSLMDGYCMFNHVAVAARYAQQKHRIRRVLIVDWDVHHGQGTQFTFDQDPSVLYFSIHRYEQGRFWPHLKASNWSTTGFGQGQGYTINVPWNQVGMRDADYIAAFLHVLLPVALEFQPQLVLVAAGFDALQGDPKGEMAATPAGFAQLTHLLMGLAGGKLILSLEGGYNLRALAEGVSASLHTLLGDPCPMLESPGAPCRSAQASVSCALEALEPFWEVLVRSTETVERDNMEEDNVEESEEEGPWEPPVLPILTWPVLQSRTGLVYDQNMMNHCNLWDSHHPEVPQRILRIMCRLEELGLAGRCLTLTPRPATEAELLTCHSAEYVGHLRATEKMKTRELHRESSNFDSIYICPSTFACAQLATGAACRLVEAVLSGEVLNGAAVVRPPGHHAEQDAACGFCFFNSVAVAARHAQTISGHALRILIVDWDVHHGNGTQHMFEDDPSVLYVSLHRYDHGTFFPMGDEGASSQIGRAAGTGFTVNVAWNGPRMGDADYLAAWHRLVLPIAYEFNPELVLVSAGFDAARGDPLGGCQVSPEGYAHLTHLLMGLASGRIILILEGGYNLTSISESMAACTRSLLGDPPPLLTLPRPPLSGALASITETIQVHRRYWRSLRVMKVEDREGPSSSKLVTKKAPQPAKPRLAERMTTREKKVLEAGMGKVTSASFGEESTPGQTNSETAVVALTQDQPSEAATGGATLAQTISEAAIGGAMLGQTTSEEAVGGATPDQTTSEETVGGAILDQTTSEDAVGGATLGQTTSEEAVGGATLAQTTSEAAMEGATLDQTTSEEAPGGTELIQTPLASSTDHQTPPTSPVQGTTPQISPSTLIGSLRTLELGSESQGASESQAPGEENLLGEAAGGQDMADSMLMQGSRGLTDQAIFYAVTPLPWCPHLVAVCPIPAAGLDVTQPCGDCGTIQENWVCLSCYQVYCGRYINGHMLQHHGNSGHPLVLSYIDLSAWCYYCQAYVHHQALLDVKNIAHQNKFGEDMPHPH

B16-F10 [3] = assay: Induction of apoptosis in mouse B16-F10 cells at 2 uM measured for 48 hrs by Annexin-V/FITC staining based flow cytometry analysis relative to control; assay type: functional
B16-F10 [4] = assay: Induction of cell cycle arrest in mouse B16-F10 cells assessed as accumulation of cells at G0/G1 phase measured for 48 hrs by flow cytometry analysis; assay type: functional, cell-based; settings: dose 0.5-4 µM
[5] = target: T2, Protein deacetylase HDAC6 (Mus musculus) (UniProt Q9Z2V5); assay: Inhibition of HDAC6 in mouse B16-F10 cells assessed as effect on acetylated alpha-tubulin level at 1 to 2 uM measured for 24 hrs by Western blot analysis; assay type: cell-based; settings: dose 1-2 µM
T2 sequence (whole entry): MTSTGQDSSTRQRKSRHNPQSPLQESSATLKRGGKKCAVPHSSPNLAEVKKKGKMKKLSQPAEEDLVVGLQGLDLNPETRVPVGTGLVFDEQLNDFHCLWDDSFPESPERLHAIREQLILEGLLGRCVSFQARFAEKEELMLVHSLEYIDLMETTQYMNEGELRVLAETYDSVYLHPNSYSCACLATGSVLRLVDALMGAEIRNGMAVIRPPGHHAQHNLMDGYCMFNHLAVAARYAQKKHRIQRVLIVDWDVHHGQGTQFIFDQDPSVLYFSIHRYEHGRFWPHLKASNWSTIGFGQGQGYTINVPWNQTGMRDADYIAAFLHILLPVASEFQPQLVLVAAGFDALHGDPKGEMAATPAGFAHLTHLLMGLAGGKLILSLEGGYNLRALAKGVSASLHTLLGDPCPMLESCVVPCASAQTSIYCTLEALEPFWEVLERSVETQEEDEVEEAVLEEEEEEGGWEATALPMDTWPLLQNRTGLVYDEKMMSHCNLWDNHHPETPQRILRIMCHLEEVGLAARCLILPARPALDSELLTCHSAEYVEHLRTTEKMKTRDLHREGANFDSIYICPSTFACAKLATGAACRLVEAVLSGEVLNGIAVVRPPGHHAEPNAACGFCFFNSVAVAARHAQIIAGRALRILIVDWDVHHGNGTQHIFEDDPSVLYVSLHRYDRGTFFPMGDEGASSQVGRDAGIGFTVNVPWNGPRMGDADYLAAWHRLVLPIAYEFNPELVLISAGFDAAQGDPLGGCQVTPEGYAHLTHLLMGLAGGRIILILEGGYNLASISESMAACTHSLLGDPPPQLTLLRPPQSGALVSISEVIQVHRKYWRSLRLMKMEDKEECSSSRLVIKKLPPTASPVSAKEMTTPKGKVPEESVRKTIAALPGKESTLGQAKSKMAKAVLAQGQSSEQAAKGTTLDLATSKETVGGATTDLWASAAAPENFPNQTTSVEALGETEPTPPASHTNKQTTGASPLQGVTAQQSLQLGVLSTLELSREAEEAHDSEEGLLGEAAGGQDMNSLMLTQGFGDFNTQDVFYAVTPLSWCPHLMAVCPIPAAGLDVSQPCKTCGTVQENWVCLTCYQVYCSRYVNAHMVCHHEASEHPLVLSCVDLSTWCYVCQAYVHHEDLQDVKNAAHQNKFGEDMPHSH

HCT-116 = assay: cells; settings: Homo sapiens, HCT-116, 48 h
Description: Antiproliferative activity against human HCT-116 cells assessed as reduction in cell viability measured for 48 hrs by MTT assay

SMILES | IC50 (B16-F10 [1]) | IC50 [2] | Activity (B16-F10 [3]) | Activity (B16-F10 [4]) | inhibition [5] | IC50 (HCT-116)
CCCNNC(=O)c1ccc(CNC(=O)c2ncc(CNc3ccccc3)s2)cc1 | 1200 nM | > 10000 nM | 61.84% | Dose-Dependent Effect | inactive | 430 nM
Nc1ccccc1NC(=O)c1ccc(-c2ncc(CNc3ccccc3)s2)cc1 | 1340 nM | > 10000 nM | 18.77% | Dose-Dependent Effect | inactive | 1570 nM
